In US20260125400A1, “TYK2 DEGRADERS AND USES THEREOF” (Kymera Therapeutics, Inc., priority 2023, published 2026):
Where two headings read alike, the source gives them in different places.

Biological target: T1, TYK2 (Homo sapiens, UniProt P29597)
T1 construct: Degradation of TYK2 in cells was quantitatively measured using Meso Scale Discovery (MSD) technology; endogenous in cells; host or cells: OCI-LY10
Test: TYK2 MSD degradation in OCI-LY10 cells
Assay type: cell-based
Settings: 4 to 24 hours incubation; for DC50: read-out: TYK2 MSD OCI-LY10 Rel-DC50
In short: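 Cellular TYK2 levels were measured by Meso Scale Discovery sandwich detection in RIPA lysates of OCI-LY10 cells exposed 4 to 24 hours at 37° C to nine 1:3 compound doses starting at 1 to 10 μM final; dose-response fitted by four-parameter regression.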

[1] = TYK2 degradation in OCI-LY10 cells

T1 sequence (P29597 whole entry): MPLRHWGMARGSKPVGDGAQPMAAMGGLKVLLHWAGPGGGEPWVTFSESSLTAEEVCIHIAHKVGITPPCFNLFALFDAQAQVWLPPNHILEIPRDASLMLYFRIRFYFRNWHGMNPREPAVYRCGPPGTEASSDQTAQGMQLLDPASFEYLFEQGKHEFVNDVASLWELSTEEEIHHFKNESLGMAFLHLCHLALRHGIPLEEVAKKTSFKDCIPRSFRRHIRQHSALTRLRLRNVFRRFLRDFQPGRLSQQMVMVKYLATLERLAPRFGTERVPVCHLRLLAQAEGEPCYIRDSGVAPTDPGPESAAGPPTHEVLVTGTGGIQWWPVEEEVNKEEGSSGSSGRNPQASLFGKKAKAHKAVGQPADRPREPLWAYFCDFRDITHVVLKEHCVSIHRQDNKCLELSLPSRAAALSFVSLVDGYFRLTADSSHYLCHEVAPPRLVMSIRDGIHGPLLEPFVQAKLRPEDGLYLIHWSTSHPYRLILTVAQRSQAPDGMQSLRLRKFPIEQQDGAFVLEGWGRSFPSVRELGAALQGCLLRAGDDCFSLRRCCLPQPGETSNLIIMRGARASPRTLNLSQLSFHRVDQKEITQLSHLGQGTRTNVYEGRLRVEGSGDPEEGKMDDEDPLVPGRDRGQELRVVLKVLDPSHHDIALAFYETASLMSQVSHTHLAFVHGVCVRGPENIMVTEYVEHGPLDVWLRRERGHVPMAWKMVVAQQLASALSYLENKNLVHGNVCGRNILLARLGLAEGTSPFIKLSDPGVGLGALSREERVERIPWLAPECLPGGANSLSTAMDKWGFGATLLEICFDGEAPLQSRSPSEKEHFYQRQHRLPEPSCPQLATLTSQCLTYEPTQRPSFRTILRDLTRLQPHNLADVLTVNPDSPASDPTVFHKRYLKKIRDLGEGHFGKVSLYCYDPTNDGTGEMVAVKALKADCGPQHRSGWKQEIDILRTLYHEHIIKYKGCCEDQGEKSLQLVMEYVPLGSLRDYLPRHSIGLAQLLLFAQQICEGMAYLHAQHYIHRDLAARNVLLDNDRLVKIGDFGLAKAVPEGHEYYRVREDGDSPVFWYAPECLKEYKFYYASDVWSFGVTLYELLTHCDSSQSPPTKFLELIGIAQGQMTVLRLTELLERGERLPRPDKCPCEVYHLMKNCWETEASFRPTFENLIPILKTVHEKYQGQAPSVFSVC

CNc1cc(N2CCc3c(-c4ccc(CN5CCC6(C5)CN(C(=O)c5ccc(Cl)c(N7CCC(=O)NC7=O)c5)C6)cn4)cccc32)nn2c(C(=O)NC3CC3F)cnc12 (centres unmarked) [I-297]
TYK2 MSD OCI-LY10 Dmax % [1]: C (C (75 to 50%)) | DC50 [1]: < 10 nM

CNc1cc(N2CCc3c(-c4ccc(CN5CCC6(CCN(C(=O)c7ccc(Cl)c(N8CCC(=O)NC8=O)c7)C6)C5)cn4)cccc32)nn2c(C(=O)NC3CC3F)cnc12 (centres unmarked) [I-302]
TYK2 MSD OCI-LY10 Dmax % [1]: C (C (75 to 50%)) | DC50 [1]: < 1 nM

CNc1cc(N2CCc3c(-c4ccc(CN5CC6(CCN(C(=O)c7cccc(N8CCC(=O)NC8=O)c7C)CC6)C5)cn4)cccc32)nn2c(C(=O)NC3CC3F)cnc12 (centres unmarked) [I-309]
TYK2 MSD OCI-LY10 Dmax % [1]: D (D (<50%)) | DC50 [1]: > 100 nM

CNc1cc(N2CCc3c(-c4ccc(CN5CCN(CC#Cc6cccc(N7CCC(=O)NC7=O)c6C)CC5)cn4)cccc32)nn2c(C(=O)NC3CC3F)cnc12 (centres unmarked) [I-311]
TYK2 MSD OCI-LY10 Dmax % [1]: C (C (75 to 50%)) | DC50 [1]: > 100 nM

CNc1cc(N2CCc3c(-c4ccc(CN5CCC6(CCC(COc7ccc(N8CCC(=O)NC8=O)c(Cl)c7)CC6)CC5)cn4)cccc32)nn2c(C(=O)N[C@@H]3C[C@@H]3F)cnc12 [I-339]
TYK2 MSD OCI-LY10 Dmax % [1]: D (D (<50%)) | DC50 [1]: < 10 nM

CNc1cc(N2CCc3c(CN4CCC(N5CCC(N6CCN(c7ccc8c(c7)n(C)c(=O)n8C7CCC(=O)NC7=O)CC6)CC5)C(F)(F)C4)cccc32)nn2c(C(=O)N[C@@H]3C[C@@H]3F)cnc12 (some centres unmarked) [I-347]
TYK2 MSD OCI-LY10 Dmax % [1]: B (B (90 to >75%)) | DC50 [1]: < 1 nM

CNc1cc(N2CCc3c(-c4ccc(CN5CC6(CCN(C(=O)c7cnc(C)c(N8CCC(=O)NC8=O)c7)CC6)C5)cn4)cccc32)nn2c(C(=O)N[C@@H]3C[C@@H]3F)cnc12 [I-351]
TYK2 MSD OCI-LY10 Dmax % [1]: B (B (90 to >75%)) | DC50 [1]: < 1 nM

CNc1cc(N2CCc3c(-c4ccc(CN5CC6(CCN(C(=O)c7cnc(OC)c(N8CCC(=O)NC8=O)c7)CC6)C5)cn4)cccc32)nn2c(C(=O)N[C@@H]3C[C@@H]3F)cnc12 [I-352]
TYK2 MSD OCI-LY10 Dmax % [1]: B (B (90 to >75%)) | DC50 [1]: < 1 nM

CNc1cc(N2CCc3c(-c4ccc(CN5CC6(CCN(C(=O)c7cncc(N8CCC(=O)NC8=O)c7)CC6)C5)cn4)cccc32)nn2c(C(=O)N[C@@H]3C[C@@H]3F)cnc12 [I-353]
TYK2 MSD OCI-LY10 Dmax % [1]: D (D (<50%)) | DC50 [1]: > 100 nM

CNc1cc(N2CCc3c(-c4ccc(CN5CC6(CCN(C(=O)c7ccc(C)c(N8CCC(=O)NC8=O)c7)CC6(F)F)C5)cn4)cc(F)cc32)nn2c(C(=O)NC3CC3F)cnc12 (centres unmarked) [I-357]
TYK2 MSD OCI-LY10 Dmax % [1]: A (A (>90%)) | DC50 [1]: < 1 nM

CNc1cc(N2CCc3c(-c4ccc(CC5CN(C6CCN(C7CCN(c8ccc9c(c8)n(C)c(=O)n9C8CCC(=O)NC8=O)CC7)CC6(F)F)C5)cn4)cccc32)nn2c(C(=O)N[C@@H]3C[C@@H]3F)cnc12 (some centres unmarked) [I-359]
TYK2 MSD OCI-LY10 Dmax % [1]: B (B (90 to >75%)) | DC50 [1]: < 1 nM

CNc1cc(N2CCc3c(-c4ccc(CN5CCC(N6CCC(C7CCN(c8ccc9c(c8)n(C)c(=O)n9C8CCC(=O)NC8=O)CC7)CC6)C(F)(F)C5)cn4)cccc32)nn2c(C(=O)N[C@@H]3C[C@@H]3F)cnc12 (some centres unmarked) [I-360]
TYK2 MSD OCI-LY10 Dmax % [1]: B (B (90 to >75%)) | DC50 [1]: < 10 nM

CNc1cc(N2CCc3c(CN4CCC(N5CCC6(CCN(C(=O)c7ccc(Cl)c(N8CCC(=O)NC8=O)c7)CC6)CC5)C(F)(F)C4)cccc32)nn2c(C(=O)N[C@@H]3C[C@@H]3F)cnc12 (some centres unmarked) [I-361]
TYK2 MSD OCI-LY10 Dmax % [1]: B (B (90 to >75%)) | DC50 [1]: < 1 nM

CNc1cc(N2CCc3c(-c4ccc(OC5CCC6(CC5)CCN(Cc5ccc(Cl)c(N7CCC(=O)NC7=O)c5)CC6)cn4)cccc32)nn2c(C(=O)N[C@@H]3C[C@@H]3F)cnc12 [I-362]
TYK2 MSD OCI-LY10 Dmax % [1]: D (D (<50%)) | DC50 [1]: > 100 nM

CNc1cc(N2CCc3c(-c4ccc(CN5CCC6(CCN(Cc7ccc(Cl)c(N8CCC(=O)NC8=O)c7)CC6)C(F)(F)C5)cn4)cccc32)nn2c(C(=O)NC3CC3)cnc12 [I-363]
TYK2 MSD OCI-LY10 Dmax % [1]: D (D (<50%)) | DC50 [1]: > 100 nM

CNc1cc(N2CCc3c(-c4ccc(CN5CC6(CCN(Cc7ccc(Cl)c(C8CCC(=O)NC8=O)c7)CC6(F)F)C5)cn4)cccc32)nn2c(C(=O)N[C@@H]3C[C@@H]3F)cnc12 (some centres unmarked) [I-365]
TYK2 MSD OCI-LY10 Dmax % [1]: C (C (75 to 50%)) | DC50 [1]: < 10 nM

CNc1cc(N2CCc3c(-c4ccc(CN5CC6(CCN(Cc7ccc(C)c(N8CCC(=O)NC8=O)c7)CC6(F)F)C5)cn4)cccc32)nn2c(C(=O)N[C@@H]3C[C@@H]3F)cnc12 [I-366]
TYK2 MSD OCI-LY10 Dmax % [1]: D (D (<50%)) | DC50 [1]: < 10 nM

CNc1cc(N2CCc3c(-c4ccc(CN5CC6(CCN(Cc7ccc(OC)c(N8CCC(=O)NC8=O)c7)CC6(F)F)C5)cn4)cccc32)nn2c(C(=O)N[C@@H]3C[C@@H]3F)cnc12 [I-367]
TYK2 MSD OCI-LY10 Dmax % [1]: C (C (75 to 50%)) | DC50 [1]: < 10 nM

CNc1cc(N2CCc3c(CN4CCC(N5CCC(CC#Cc6ccc7c(c6)n(C)c(=O)n7C6CCC(=O)NC6=O)CC5)C(F)(F)C4)cccc32)nn2c(C(=O)N[C@@H]3C[C@@H]3F)cnc12 (some centres unmarked) [I-368]
TYK2 MSD OCI-LY10 Dmax % [1]: D (D (<50%)) | DC50 [1]: > 100 nM

CNc1cc(N2CCc3c(-c4ccc(CN5CC6(CCN(Cc7ccc(Cl)c(N8CCC(=O)NC8=O)c7)CC6(F)F)C5)cn4)cccc32)nn2c(C(=O)N[C@@H]3C[C@@H]3F)cnc12 [I-369]
TYK2 MSD OCI-LY10 Dmax % [1]: D (D (<50%)) | DC50 [1]: > 100 nM

CNc1cc(N2CCc3c(C#CCN4CCC5(CN(C(=O)c6ccc(Cl)c(N7CCC(=O)NC7=O)c6)C5)C(F)(F)C4)cccc32)nn2c(C(=O)N[C@@H]3C[C@@H]3F)cnc12 [I-370]
TYK2 MSD OCI-LY10 Dmax % [1]: D (D (<50%)) | DC50 [1]: > 100 nM

CNc1cc(N2CCc3c(-c4ccc(CN5CCC(N6CCC7(CCN(c8ccc9c(c8)n(C)c(=O)n9C8CCC(=O)NC8=O)CC7)CC6)C(F)(F)C5)cn4)cccc32)nn2c(C(=O)N[C@@H]3C[C@@H]3F)cnc12 (some centres unmarked) [I-371]
TYK2 MSD OCI-LY10 Dmax % [1]: C (C (75 to 50%)) | DC50 [1]: < 10 nM

CNc1cc(N2CCc3c(CN4CCC(N5CCC(OCC#Cc6cccc7c6n(C)c(=O)n7C6CCC(=O)NC6=O)CC5)C(F)(F)C4)cccc32)nn2c(C(=O)N[C@@H]3C[C@@H]3F)cnc12 (some centres unmarked) [I-372]
TYK2 MSD OCI-LY10 Dmax % [1]: D (D (<50%)) | DC50 [1]: < 10 nM

CNc1cc(N2CCc3c(-c4ccc(CN5CCN(Cc6ccc(C7CCC(=O)NC7=O)c(Cl)c6)CC5)cn4)cccc32)nn2c(C(=O)N[C@@H]3C[C@@H]3F)cnc12 (some centres unmarked) [I-374]
TYK2 MSD OCI-LY10 Dmax % [1]: D (D (<50%)) | DC50 [1]: < 10 nM

CNc1cc(N2CCc3c(-c4ccc(CN5CCC(Oc6ccc(C7CCC(=O)NC7=O)c(Cl)c6)CC5)cn4)cccc32)nn2c(C(=O)N[C@@H]3C[C@@H]3F)cnc12 (some centres unmarked) [I-387]
TYK2 MSD OCI-LY10 Dmax % [1]: B (B (90 to >75%)) | DC50 [1]: 10 to 100 nM

CNc1cc(N2CCc3c(-c4ccc(CN5CCN(Cc6ccc(NC7CCC(=O)NC7=O)c(Cl)c6)CC5)cn4)cccc32)nn2c(C(=O)N[C@@H]3C[C@@H]3F)cnc12 (some centres unmarked) [I-389]
TYK2 MSD OCI-LY10 Dmax % [1]: C (C (75 to 50%)) | DC50 [1]: < 10 nM

CNc1cc(N2CCc3c(-c4cc(CN5CCN(CCc6ccc(Cl)c(C7CCC(=O)NC7=O)c6)CC5)ccn4)cccc32)nn2c(C(=O)NC3CC3F)cnc12 (centres unmarked) [I-395]
TYK2 MSD OCI-LY10 Dmax % (OCI-LY10 cells): D (D (<50%)) | DC50 (OCI-LY10 cells): > 100 nM

CNc1cc(N2CCc3c(CN4CCC(N5CCN(Cc6ccc(Cl)c(C7CCC(=O)NC7=O)c6)CC5)C(F)(F)C4)cccc32)nn2c(C(=O)NC3CC3F)cnc12 (centres unmarked) [I-421]
TYK2 MSD OCI-LY10 Dmax % (OCI-LY10 cells): D (D (<50%)) | DC50 (OCI-LY10 cells): > 100 nM

CNc1cc(N2CCc3c(-c4ccc(OCC5CCN(Cc6ccc(Cl)c(C7CCC(=O)NC7=O)c6)CC5)cn4)cccc32)nn2c(C(=O)N[C@@H]3C[C@@H]3F)cnc12 (some centres unmarked) [I-425]
TYK2 MSD OCI-LY10 Dmax % (OCI-LY10 cells): D (D (<50%)) | DC50 (OCI-LY10 cells): > 100 nM

CNc1cc(N2CCc3c2cccc3C23CC(CN4CCC(N5CC(N6CCN(c7cccc8c7n(C)c(=O)n8C7CCC(=O)NC7=O)CC6)C5)C(F)(F)C4)(C2)C3)nn2c(C(=O)N[C@@H]3C[C@@H]3F)cnc12 (some centres unmarked) [I-429]
TYK2 MSD OCI-LY10 Dmax % (OCI-LY10 cells): B (B (90 to >75%)) | DC50 (OCI-LY10 cells): < 10 nM

CNc1cc(N2CCc3c(-c4ccc(CN5CC6(CCN(Cc7ccc(OC)c(C8CCC(=O)NC8=O)c7)CC6(F)F)C5)cn4)cccc32)nn2c(C(=O)N[C@@H]3C[C@@H]3F)cnc12 (some centres unmarked) [I-431]
TYK2 MSD OCI-LY10 Dmax % (OCI-LY10 cells): B (B (90 to >75%)) | DC50 (OCI-LY10 cells): < 10 nM

CNc1cc(N2CCc3c(-c4ccc(CN5CC6(CCN(Cc7cc(N8CCC(=O)NC8=O)c(Cl)cc7C)CC6(F)F)C5)cn4)cccc32)nn2c(C(=O)N[C@@H]3C[C@@H]3F)cnc12 [I-456]
TYK2 MSD OCI-LY10 Dmax % (OCI-LY10 cells): D (D (<50%)) | DC50 (OCI-LY10 cells): > 100 nM

CNc1cc(N2CCc3c(-c4ccc(CN5CC6(CCN(Cc7c(C)ccc(N8CCC(=O)NC8=O)c7C)CC6(F)F)C5)cn4)cccc32)nn2c(C(=O)N[C@@H]3C[C@@H]3F)cnc12 [I-458]
TYK2 MSD OCI-LY10 Dmax % (OCI-LY10 cells): D (D (<50%)) | DC50 (OCI-LY10 cells): < 10 nM

CNc1cc(N2CCc3c(-c4ccc(CN5CCC6(CC5)CC(COc5ccc(C7CCC(=O)NC7=O)c(Cl)c5)C6)cn4)cccc32)nn2c(C(=O)N[C@@H]3C[C@@H]3F)cnc12 (some centres unmarked) [I-460]
TYK2 MSD OCI-LY10 Dmax % (OCI-LY10 cells): D (D (<50%)) | DC50 (OCI-LY10 cells): > 100 nM
